Data: patent publication US9650395B2, “Antibacterial compounds and methods for use” (PTC Therapeutics, Inc., priority 2011, dated 2017)
Values after ≈ are worked out from the molar mass of the structure shown. Where two headings read alike, the source gives them in different places.

Columns and labels:
[1] = system: Klebsiella pneumoniae (K. pneumoniae) 35657; assay: Antibacterial activity, MIC, K. pneumoniae 35657; type: cell-based; conditions: Klebsiella pneumoniae
[2] = system: quinolone resistant E. coli LZ3111; assay: Antibacterial activity, MIC, quinolone resistant E. coli LZ3111; type: cell-based, Escherichia coli; conditions: Escherichia coli, read-out: MIC, LZ3111
Excerpt: (§1) The antibacterial activity from a microbroth dilution method may be presented as the minimum inhibitory concentration (MIC in […]). The MIC value is the lowest concentration of a drug which prevents macroscopically visible bacterial growth under test conditions.
Mutations in these regions are known to confer a high level resistance to the quinolone class of antibiotics.

[3] = system: resistant K. pneumoniae MXX1232 (MDR clinical isolate); assay: Antibacterial activity, MIC, resistant K. pneumoniae MXX1232; type: cell-based, Klebsiella pneumoniae; conditions: Klebsiella pneumoniae, read-out: MIC MMX1232
[4] = system: control Gram-negative E. coli 25922 strain; assay: Antibacterial activity, microbroth dilution MIC, E. coli 25922; type: cell-based, Escherichia coli; conditions: Escherichia coli; E. coli 25922, microbroth dilution; read-out: MIC, 25922
[5] = system: super sensitive Gram-negative Escherichia coli (E. coli) BAS849; assay: Antibacterial activity, microbroth dilution MIC, E. coli BAS849; type: cell-based; conditions: Escherichia coli; E. coli BAS849, microbroth dilution; read-out: MIC, BAS849
[6] = system: resistant A. baumannii MXX2240 (MDR clinical isolate); assay: Antibacterial activity, MIC, resistant A. baumannii MXX2240; type: cell-based, Acinetobacter baumannii; conditions: Acinetobacter baumannii, read-out: MIC MMX2240
[7] = system: Pseudomonas aeruginosa (P. aeruginosa) 27853; assay: Antibacterial activity, MIC, P. aeruginosa 27853; type: cell-based; conditions: Pseudomonas aeruginosa, P. aeruginosa 27853; read-out: MIC 27853
Excerpt: as §1
Antibacterial activity of test compounds against the Gram-negative bacterium Pseudomonas aeruginosa (P. aeruginosa) 27853 is shown in Table 5.

[8] = system: Gram-positive Staphylococcus aureus (S. aureus) 29213; assay: Antibacterial activity, microbroth dilution MIC, S. aureus 29213; type: cell-based; conditions: Staphylococcus aureus; S. aureus 29213, microbroth dilution; read-out: MIC, 29213
[9] = system: Acinetobacter baumannii (A. baumannii) BAA747; assay: Antibacterial activity, MIC, A. baumannii BAA747; type: cell-based; conditions: Acinetobacter baumannii; A. baumannii BAA747; read-out: MIC BAA747
[10] = resistant K. pneumoniae MMX1232, MDR clinical isolate
[11] = resistant A. baumannii MMX2240, MDR clinical isolate

Compound | MIC [1] | MIC [2] | MIC [3, 10] | MIC [4] | MIC [5] | MIC [6, 11] | MIC [7] | MIC [8] | MIC [9] | MIC [3] | MIC [6]
CCc1c(-c2cnc(N3CCC(N(C)C)C3)cn2)[nH]c(=O)c(C(=O)O)c1O (stereo not drawn) [Cpd 314, 6-(5-(3-(dimethylamino)pyrrolidin-1-yl)pyrazin-2-yl)-5-ethyl-4-hydroxy-2-oxo-1,2-dihydropyridine-3-carboxylic acid] | 12.5 to 150 mg/L (≈ 33.5 to 402 µM) | 3.5 to 12.5 mg/L (≈ 9.37 to 33.5 µM) | 12.5 to 150 mg/L (≈ 33.5 to 402 µM) | 12.5 to 150 mg/L (≈ 33.5 to 402 µM) | 3.5 to 12.5 mg/L (≈ 9.37 to 33.5 µM) | 12.5 to 150 mg/L (≈ 33.5 to 402 µM) | 12.5 to 150 mg/L (≈ 33.5 to 402 µM) | 12.5 to 150 mg/L (≈ 33.5 to 402 µM) | 12.5 to 150 mg/L (≈ 33.5 to 402 µM) |  | 
CC#Cc1c(-c2ccc(N(C)C)cc2)[nH]c(=O)c(C(=O)O)c1O [Cpd 333, 6-(4-(dimethylamino)phenyl)-4-hydroxy-2-oxo-5-(prop-1-ynyl)-1,2-dihydropyridine-3-carboxylic acid] | 12.5 to 150 mg/L (≈ 40 to 480 µM) | 12.5 to 150 mg/L (≈ 40 to 480 µM) | 12.5 to 150 mg/L (≈ 40 to 480 µM) | 12.5 to 150 mg/L (≈ 40 to 480 µM) | 1 to 3.5 mg/L (≈ 3.2 to 11.2 µM) | 12.5 to 150 mg/L (≈ 40 to 480 µM) | 12.5 to 150 mg/L (≈ 40 to 480 µM) | 12.5 to 150 mg/L (≈ 40 to 480 µM) | 12.5 to 150 mg/L (≈ 40 to 480 µM) |  | 
CCc1cc(C(=O)O)c(=O)[nH]c1-c1ccc(N2CCC(c3ccncc3)C2)cc1 (stereo not drawn) [Cpd 226, 5-ethyl-2-oxo-6-{4-[3-(pyridin-4-yl)pyrrolidin-1-yl]phenyl}-1,2-dihydropyridine-3-carboxylic acid] | 3.5 to 12.5 mg/L (≈ 8.99 to 32.1 µM) | 12.5 to 150 mg/L (≈ 32.1 to 385 µM) | 12.5 to 150 mg/L (≈ 32.1 to 385 µM) | 1 to 3.5 mg/L (≈ 2.57 to 8.99 µM) | < 1 mg/L | 12.5 to 150 mg/L (≈ 32.1 to 385 µM) | 12.5 to 150 mg/L (≈ 32.1 to 385 µM) | 3.5 to 12.5 mg/L (≈ 8.99 to 32.1 µM) | 1 to 3.5 mg/L (≈ 2.57 to 8.99 µM) |  | 
CCc1c(-c2ccc(C3=CCN(C)CC3)cc2)[nH]c(=O)c(C(=O)O)c1O [Cpd 342, 5-ethyl-4-hydroxy-6-(4-(1-methyl-1,2,3,6-tetrahydropyridin-4-yl)phenyl)-2-oxo-1,2-dihydropyridine-3-carboxylic acid] | 3.5 to 12.5 mg/L (≈ 9.88 to 35.3 µM) | 3.5 to 12.5 mg/L (≈ 9.88 to 35.3 µM) |  | 3.5 to 12.5 mg/L (≈ 9.88 to 35.3 µM) | 1 to 3.5 mg/L (≈ 2.82 to 9.88 µM) |  | 12.5 to 150 mg/L (≈ 35.3 to 423 µM) | 12.5 to 150 mg/L (≈ 35.3 to 423 µM) | 12.5 to 150 mg/L (≈ 35.3 to 423 µM) | 12.5 to 150 mg/L (≈ 35.3 to 423 µM) | 12.5 to 150 mg/L (≈ 35.3 to 423 µM)
CCc1c(-c2ccc(N3CCC(N(C)C)C3)nc2)[nH]c(=O)c(C(=O)O)c1O (stereo not drawn) [Cpd 335, 6-(6-(3-(dimethylamino)pyrrolidin-1-yl)pyridin-3-yl)-5-ethyl-4-hydroxy-2-oxo-1,2-dihydropyridine-3-carboxylic acid] | 12.5 to 150 mg/L (≈ 33.6 to 403 µM) | < 1 mg/L | 12.5 to 150 mg/L (≈ 33.6 to 403 µM) | 12.5 to 150 mg/L (≈ 33.6 to 403 µM) | 3.5 to 12.5 mg/L (≈ 9.4 to 33.6 µM) | 12.5 to 150 mg/L (≈ 33.6 to 403 µM) | 12.5 to 150 mg/L (≈ 33.6 to 403 µM) | 12.5 to 150 mg/L (≈ 33.6 to 403 µM) | 12.5 to 150 mg/L (≈ 33.6 to 403 µM) |  | 
Cc1c(-c2ccc(N3CCC(N(C)C)C3)cn2)[nH]c(=O)c(C(=O)O)c1O (stereo not drawn) [Cpd 316, 6-(5-(3-(dimethylamino)pyrrolidin-1-yl)pyridin-2-yl)-4-hydroxy-5-methyl-2-oxo-1,2-dihydropyridine-3-carboxylic acid] | 12.5 to 150 mg/L (≈ 34.9 to 419 µM) | 12.5 to 150 mg/L (≈ 34.9 to 419 µM) | 12.5 to 150 mg/L (≈ 34.9 to 419 µM) | 12.5 to 150 mg/L (≈ 34.9 to 419 µM) | 12.5 to 150 mg/L (≈ 34.9 to 419 µM) | 12.5 to 150 mg/L (≈ 34.9 to 419 µM) | 12.5 to 150 mg/L (≈ 34.9 to 419 µM) | 12.5 to 150 mg/L (≈ 34.9 to 419 µM) | 12.5 to 150 mg/L (≈ 34.9 to 419 µM) |  | 
CCc1cc(C(=O)O)c(=O)[nH]c1-c1ccc(N2CCC(O)(CC)C2)cc1 (stereo not drawn) [Cpd 232, 5-ethyl-6-[4-(3-ethyl-3-hydroxypyrrolidin-1-yl)phenyl]-2-oxo-1,2-dihydropyridine-3-carboxylic acid] | 1 to 3.5 mg/L (≈ 2.81 to 9.82 µM) | 12.5 to 150 mg/L (≈ 35.1 to 421 µM) | 12.5 to 150 mg/L (≈ 35.1 to 421 µM) | 1 to 3.5 mg/L (≈ 2.81 to 9.82 µM) | < 1 mg/L | 12.5 to 150 mg/L (≈ 35.1 to 421 µM) | 12.5 to 150 mg/L (≈ 35.1 to 421 µM) | 3.5 to 12.5 mg/L (≈ 9.82 to 35.1 µM) | 1 to 3.5 mg/L (≈ 2.81 to 9.82 µM) |  | 
CN(C)c1ccc(-c2[nH]c(=O)c(C(=O)O)c(O)c2CCO)cc1 [Cpd 328, 6-(4-(dimethylamino)phenyl)-4-hydroxy-5-(2-hydroxyethyl)-2-oxo-1,2-dihydropyridine-3-carboxylic acid] | 3.5 to 12.5 mg/L (≈ 11 to 39.3 µM) | 3.5 to 12.5 mg/L (≈ 11 to 39.3 µM) | 12.5 to 150 mg/L (≈ 39.3 to 471 µM) | 3.5 to 12.5 mg/L (≈ 11 to 39.3 µM) | < 1 mg/L | 3.5 to 12.5 mg/L (≈ 11 to 39.3 µM) | 12.5 to 150 mg/L (≈ 39.3 to 471 µM) | 12.5 to 150 mg/L (≈ 39.3 to 471 µM) | 12.5 to 150 mg/L (≈ 39.3 to 471 µM) |  | 
